Converted amounts (≈) assume the structure as drawn.
Legend:
[1] = DNDI: Cytotoxicity against L929 mouse fibroblasts, 72 hour.; type: toxicity, cell-based; conditions: mouse, L929 mouse fibroblasts
Trypanosoma brucei = assay: DNDI: Inhibition of Human African Trypanosomiasis, SBRI 427, in vitro; type: functional, organism-based; conditions: Trypanosoma brucei, SBRI 427; read-out: IC50

Row | Compound | IC50 at 72 h [1] [µg/mL] | IC50 (Trypanosoma brucei) [µg/mL]
1 | CCCCCC(C)NCc1coc(-c2cc(Cl)ccc2O)n1 (stereo not drawn) | 2.33 (≈ 7.22 µM) | 2.46 (≈ 7.62 µM)
2 | Fc1ccc(Oc2nc(Cl)nc3ccsc23)cc1 | > 10 | > 5
3 | O=C(NCC1C(O)=C(C(=O)c2ccccc2)C(=O)N1C(=O)OCc1ccccc1)OCc1ccccc1 (stereo not drawn) | 9.13 (≈ 18.2 µM) | > 5
4 | CCC(C)Oc1ccc(-c2nc(CNCCCN(C)C)co2)cc1 (stereo not drawn) | > 10 | > 5
5 | Cc1ccc(CNC(c2nc(Cc3ccccc3)c(N3CCOCC3)o2)c2ccccc2C)cc1 (stereo not drawn) | > 10 | > 5
6 | CCCCc1ccc(-c2nc(CNC3CCCC3)co2)cc1 | 2.52 (≈ 8.44 µM) | 0.83 (≈ 2.78 µM)
7 | CCCCCCC/C(O)=C1\C(=O)NC(CC(C)C)C1=O (stereo not drawn) | > 10 | > 5
8 | CN(C)CC(C)(C)CNc1cc(-c2ccccc2)nc2cc(-c3ccc(F)cc3)nn12 | > 10 | > 5
9 | C(=N\Oc1ccccc1)/c1ccccc1-c1ccccc1 | > 10 | > 5
10 | C#[N+]C(C(=O)N1CCOCC1)c1ccccc1 (stereo not drawn) | > 10 | > 5
11 | C[N+]1(C)CCN(c2cc(-c3ccccc3)nc3cc(-c4ccc(F)cc4)nn23)CC1 | > 10 | > 5
12 | CCCCc1ccc(-c2nc(CNCCCN(CC)CC)co2)cc1 | 0.89 (≈ 2.59 µM) | 0.1 (≈ 0.291 µM)
13 | CCCCc1ccc(-c2nc(CNCCCn3ccnc3)co2)cc1 | 0.66 (≈ 1.95 µM) | 0.3 (≈ 0.886 µM)
14 | CN(C)CCCNCc1coc(-c2ccc(OC3CCCC3)cc2)n1 | > 10 | > 5
15 | COc1ccc(S(=O)(=O)Nc2ccccn2)cc1 | > 10 | > 5
16 | CCCCOc1ccc(-c2nc(CNCC(C)(C)C)co2)cc1 | 1.8 (≈ 5.69 µM) | 0.9 (≈ 2.84 µM)
17 | CCCCCCNCc1coc(-c2ccc(CCCC)cc2)n1 | 1.15 (≈ 3.66 µM) | 0.37 (≈ 1.18 µM)
18 | CCCCCc1ccc(-c2nc(CNC(C)CCCCC)co2)cc1 (stereo not drawn) | 1.01 (≈ 2.95 µM) | 1.09 (≈ 3.18 µM)
19 | COc1ccccc1C(=O)c1nc(-c2ccccc2)oc1N | > 10 | > 5
20 | Fc1c(F)c(F)c(CO/N=C/c2ccccc2-c2ccccc2)c(F)c1F | > 10 | > 5
21 | CCCCc1ccc(-c2nc(CNCc3ccc(C)cc3)co2)cc1 | 2.63 (≈ 7.86 µM) | 3.05 (≈ 9.12 µM)
22 | Nc1oc(-c2ccccc2)nc1C(=O)c1ccc(-c2ccccc2)cc1 | 5.23 (≈ 15.4 µM) | > 5
23 | CCC(C)C(NCc1ccc(OC)c(OC)c1)c1nc(Cc2ccccc2)c(N2CCCCC2)o1 (stereo not drawn) | > 10 | > 5

Row | Compound | IC50 at 72 h [1] [µg/mL] | IC50 (Trypanosoma brucei) [µg/mL]
24 | CCCCCC(C)NCc1coc(-c2ccccc2C#N)n1 (stereo not drawn) | > 10 | 3.76 (≈ 12.6 µM)
25 | COc1ccc(-c2nc(CNCCCN(C)C)c(C)o2)cc1 | > 10 | 3.13 (≈ 10.3 µM)
26 | CCCCc1ccc(-c2nc(-c3ccccc3)c(C)o2)cc1 | > 10 | > 5
27 | COc1ccc(S(=O)(=O)Nc2ccccn2)cc1OC | > 10 | > 5
28 | CCCCc1ccc(-c2nc(CNCc3ccccn3)co2)cc1 | 9.31 (≈ 29 µM) | > 5
29 | CCCCCC(C)NCc1nc(-c2ccc(OC)cc2)oc1C (stereo not drawn) | > 10 | 1.49 (≈ 4.71 µM)
30 | Cc1ccc(CNC(c2cccc(Cl)c2)c2nc(Cc3ccccc3)c(N3CCOCC3)o2)cc1 (stereo not drawn) | > 10 | > 5
31 | CC(C)(C)OC(=O)N1CCC(Nc2cc(-c3ccccc3)nc3cc(-c4ccc(F)cc4)nn23)CC1 | > 10 | > 5
32 | COc1ccc(/C(=N/O)Nc2cccc(C(C)C)c2)cc1 | 5.81 (≈ 20.4 µM) | 1.41 (≈ 4.96 µM)
33 | Cc1ccc(CNC(c2ccccc2)c2nc(-c3ccccc3)c(N3CCCCC3)o2)cc1 (stereo not drawn) | > 10 | > 5
34 | CCCCCC(C)NCc1coc(-c2ccc(CC)cc2)n1 (stereo not drawn) | 2.61 (≈ 8.69 µM) | 1 (≈ 3.33 µM)
35 | CN(C)CCCNc1cc(-c2ccccc2)nc2cc(-c3cccc(F)c3)nn12 | 2.28 (≈ 5.85 µM) | 1.13 (≈ 2.9 µM)
36 | CCCCc1ccc(-c2nc(CNCCCNC(=O)OC(C)(C)C)co2)cc1 | 1.47 (≈ 3.79 µM) | 0.74 (≈ 1.91 µM)
37 | C/C(O)=C1\C(=O)NC(CC(C)C)C1=O (stereo not drawn) | > 10 | > 5
38 | O/N=C(\NC1CCCCC1)c1cccnc1Oc1cc(Cl)ccc1Cl | > 10 | 0.57 (≈ 1.5 µM)
39 | CCCCc1ccc(-c2nc(CC)co2)cc1 | 6.2 (≈ 27 µM) | > 5
40 | CCCCc1ccc(-c2nc(CNCCc3ccccc3)co2)cc1 | 2.3 (≈ 6.88 µM) | 0.69 (≈ 2.06 µM)
41 | CCCCCCCCOC(=O)Cc1coc(-c2ccc(CCCC)cc2)n1 | > 10 | > 5
42 | CCCCc1ccc(-c2nc(CN3CCN(c4ccccc4)CC3)co2)cc1 | > 10 | > 5
43 | CCCCCC(C)NCc1coc(-c2c(Cl)cccc2Cl)n1 (stereo not drawn) | 5.76 (≈ 16.9 µM) | 2.04 (≈ 5.98 µM)
44 | CCCCCC(C)NCc1coc(-c2ccc(OCc3ccc(Cl)c(Cl)c3)cc2)n1 (stereo not drawn) | 1.9 (≈ 4.25 µM) | 0.41 (≈ 0.916 µM)
45 | CC(C)(C)OC(=O)N1CCN(c2cc(-c3ccccc3)nc3cc(-c4ccc(F)cc4)nn23)CC1 | > 10 | > 5
46 | CCCCc1ccc(-c2nc(CN3C(=O)c4ccccc4C3=O)co2)cc1 | > 10 | > 5

Row | Compound | IC50 at 72 h [1] [µg/mL] | IC50 (Trypanosoma brucei) [µg/mL]
47 | CCCCc1ccc(-c2nc(-c3ccccc3)c(-c3ccccc3)o2)cc1 | > 10 | > 5
48 | CCCCc1ccc(-c2nc(Nc3ccccn3)co2)cc1 | > 10 | > 5
49 | CCCCNCc1coc(-c2ccc(CCCC)cc2)n1 | 2.5 (≈ 8.73 µM) | 0.75 (≈ 2.62 µM)
50 | CCCCc1ccc(-c2nc(CNCc3ccccc3)co2)cc1 | 3.29 (≈ 10.3 µM) | 1.32 (≈ 4.12 µM)
51 | Fc1ccc(-c2cc3nc(-c4ccccc4)cc(NCCN4CCOCC4)n3n2)cc1 | > 10 | > 5
52 | CC(C)(C)c1cc(=O)n2nc(-c3ccc(F)cc3)cc2[nH]1 | > 10 | > 5
53 | COc1ccccc1Oc1ncccc1/C(N)=N\O | > 10 | > 5
54 | COC(=O)c1sccc1NC(N)=O | > 10 | > 5
55 | Fc1ccc(-c2cc3nc(-c4ccccc4)cc(NCCN4CCCCC4)n3n2)cc1 | > 10 | > 5
56 | CCCCc1ccc(-c2nc(CN)co2)cc1 | > 10 | > 5
57 | CCC(CC)Oc1ccc(-c2nc(CNCCCN(C)C)co2)cc1 | > 10 | > 5
58 | O=C(OC1=CC(=O)N(C(=O)OCc2ccccc2)C1COCc1ccccc1)c1ccccc1 (stereo not drawn) | > 10 | > 5
59 | CCCCCC(C)NCc1coc(-c2cc(C(F)(F)F)cc(C(F)(F)F)c2)n1 (stereo not drawn) | > 10 | 2.06 (≈ 5.04 µM)
60 | Cc1ccc(CNC(CC(C)C)c2nc(-c3ccccc3)c(N3CCOCC3)o2)cc1 (stereo not drawn) | > 10 | 4.22 (≈ 10.1 µM)
61 | O=c1cc(-c2ccccc2)[nH]c2cc(-c3cccc(F)c3)nn12 | 4.88 (≈ 16 µM) | > 5
62 | CN(C)CCCNCc1coc(-c2ccc(OCCc3ccccc3)cc2)n1 | > 10 | > 5
63 | CN(C)CCNc1cc(-c2ccccc2)nc2cc(-c3cccc(F)c3)nn12 | 1.78 (≈ 4.74 µM) | 2.07 (≈ 5.51 µM)
64 | CCCCCCCCCCOc1ccc(-c2nc(CN[C@@H]3C[C@@H]4C[C@H]([C@H]3C)C4(C)C)co2)cc1 | 7.22 (≈ 15.5 µM) | > 5
65 | CN(C)CCCNc1cc(-c2ccccc2)nc2cc(-c3ccc(F)cc3)nn12 | 2.57 (≈ 6.6 µM) | 1.1 (≈ 2.82 µM)
66 | Cc1ccc(Oc2ccccc2/C(=N/O)NC2CCCCC2)cc1 | 4.06 (≈ 12.5 µM) | 0.27 (≈ 0.832 µM)
67 | CCCCc1ccc(-c2nc(-c3ccc(OC)cc3)co2)cc1 | > 10 | > 5
68 | COc1cccc(OC)c1CNCc1coc(-c2ccc(OC(C)C)cc2)n1 | 4.15 (≈ 10.9 µM) | 2.88 (≈ 7.53 µM)
69 | Cc1ccc(/C(=N/O)Nc2cccc(F)c2)c(Oc2c(F)cccc2F)n1 | > 10 | 3.75 (≈ 10 µM)

Row | Compound | IC50 at 72 h [1] [µg/mL] | IC50 (Trypanosoma brucei) [µg/mL]
70 | CC(C)(C)OC(=O)N1CCC(Nc2cc(-c3ccccc3)nc3cc(-c4ccc(F)cc4)nn23)C1 (stereo not drawn) | > 10 | > 5
71 | Cc1cc(NCCN2CCOCC2)n2nc(-c3cccc(F)c3)cc2n1 | > 10 | > 5
72 | CCCCCC(C)NCc1coc(-c2ccc(OCCCC)c(OC)c2)n1 (stereo not drawn) | 1.48 (≈ 3.95 µM) | 0.38 (≈ 1.01 µM)
73 | Cc1cc(NCC(C)(C)CN(C)C)n2nc(-c3cccc(F)c3)cc2n1 | 9.64 (≈ 27.1 µM) | > 5
74 | CCCCc1ccc(-c2nc(CNC3CCCCC3)co2)cc1 | 1.44 (≈ 4.61 µM) | 0.41 (≈ 1.31 µM)
75 | CCOCCCNC(c1nc(C(C)C)c(N2CCOCC2)o1)C1CC1 (stereo not drawn) | > 10 | > 5
76 | O/N=C1\COc2ccccc21 | > 10 | > 5
77 | COc1ccc(CNC(c2nc(Cc3ccccc3)c(N3CCCCC3)o2)C2CCCCC2)cc1OC (stereo not drawn) | > 10 | > 5
78 | CCCCc1ccc(-c2nc(CNC3CCN(Cc4ccccc4)CC3)co2)cc1 | 0.96 (≈ 2.38 µM) | 0.16 (≈ 0.396 µM)
79 | CCCCCC(C)NCc1coc(-c2ccc(C)c(C)c2)n1 (stereo not drawn) | 1.86 (≈ 6.19 µM) | 0.74 (≈ 2.46 µM)
80 | Fc1ccc(-c2cc3nc(-c4ccccc4)cc(NCCCn4ccnc4)n3n2)cc1 | 7.66 (≈ 18.6 µM) | 4.04 (≈ 9.79 µM)
81 | CCCCc1ccc(-c2nc(CNC3CC3)co2)cc1 | 7.55 (≈ 27.9 µM) | 3.05 (≈ 11.3 µM)
82 | O/N=C(\Nc1cccc(F)c1)c1cccnc1Oc1cc(Cl)ccc1Cl | 7.69 (≈ 19.6 µM) | > 5
83 | CCc1cccc(N/C(=N\O)c2ccc(C)nc2Oc2cc(Cl)ccc2Cl)c1 | 4.7 (≈ 11.3 µM) | 3.96 (≈ 9.51 µM)
84 | CCN(CC)CCCNc1cc(C)nc2cc(-c3cccc(F)c3)nn12 | > 10 | > 5
85 | NCCCNc1cc(-c2ccccc2)nc2cc(-c3ccc(F)cc3)nn12 | 0.76 (≈ 2.1 µM) | 0.554 (≈ 1.53 µM)
86 | CCCCc1ccc(-c2nc(CNC(C)CCC)co2)cc1 (stereo not drawn) | 2.03 (≈ 6.76 µM) | 0.61 (≈ 2.03 µM)
87 | CC(C)(C)OC(=O)N1CCN(c2cc(C(C)(C)C)nc3cc(-c4ccc(F)cc4)nn23)CC1 | > 10 | > 5
88 | CC(C)c1ccc(-c2nc(CNCCCN(C)C)co2)cc1 | > 10 | > 5
89 | Cc1ccc(CNC(c2cccc(C#N)c2)c2nc(Cc3ccccc3)c(N3CCOCC3)o2)cc1 (stereo not drawn) | > 10 | > 5

— ChEMBL document CHEMBL1857833, “Screening and optimization of specific chemical series against human African Trypanosomiasis (HAT)”
